Measurements: the supplement of paper PMC13380429

Experiments:
Conditions in all cases: 72 h
Calu-3 [1] = assay: cell viability relative to DMSO; higher = less toxic
Vero E6 [2] = assay: as above
Caco-2 [3] = assay: as above
U2OS [4] = assay: as above
HepG2 [5] = assay: as above
Calu-3 [6] = assay: relative viability EC50 (midpoint between 100% and the lowest measured viability); higher = less toxic
Vero E6 [7] = assay: as above
Caco-2 [8] = assay: as above
U2OS [9] = assay: as above
HepG2 [10] = assay: as above
Calu-3 [11] = assay: drug sensitivity score (DSS) for viability; higher = more toxic; extreme values may be limits of the assay
Vero E6 [12] = assay: as above
Caco-2 [13] = assay: as above
U2OS [14] = assay: as above
HepG2 [15] = assay: as above

| SMILES | cell viability (Calu-3 [1]; 1 nM) | cell viability (Calu-3 [1]; 10 nM) | cell viability (Calu-3 [1]; 100 nM) | cell viability (Calu-3 [1]; 1000 nM) | cell viability (Calu-3 [1]; 10000 nM) | cell viability (Vero E6 [2]; 1 nM) | cell viability (Vero E6 [2]; 10 nM) | cell viability (Vero E6 [2]; 100 nM) | cell viability (Vero E6 [2]; 1000 nM) | cell viability (Vero E6 [2]; 10000 nM) | cell viability (Caco-2 [3]; 1 nM) | cell viability (Caco-2 [3]; 10 nM) | cell viability (Caco-2 [3]; 100 nM) | cell viability (Caco-2 [3]; 1000 nM) | cell viability (Caco-2 [3]; 10000 nM) | cell viability (U2OS [4]; 1 nM) | cell viability (U2OS [4]; 10 nM) | cell viability (U2OS [4]; 100 nM) | cell viability (U2OS [4]; 1000 nM) | cell viability (U2OS [4]; 10000 nM) | cell viability (HepG2 [5]; 1 nM) | cell viability (HepG2 [5]; 10 nM) | cell viability (HepG2 [5]; 100 nM) | cell viability (HepG2 [5]; 1000 nM) | cell viability (HepG2 [5]; 10000 nM) | relative viability EC50 (Calu-3 [6]) | relative viability EC50 (Vero E6 [7]) | relative viability EC50 (Caco-2 [8]) | relative viability EC50 (U2OS [9]) | relative viability EC50 (HepG2 [10]) | drug sensitivity score (Calu-3 [11]) | drug sensitivity score (Vero E6 [12]) | drug sensitivity score (Caco-2 [13]) | drug sensitivity score (U2OS [14]) | drug sensitivity score (HepG2 [15]) |
| --- | --- | --- | --- | --- | --- | --- | --- | --- | --- | --- | --- | --- | --- | --- | --- | --- | --- | --- | --- | --- | --- | --- | --- | --- | --- | --- | --- | --- | --- | --- | --- | --- | --- | --- | --- |
| N#Cc1cc2nc(O)c(O)nc2cc1[N+](=O)[O-] [CNQX] | 95.9% | 101% | 106% | 97% | 85.8% | 100% | 100% | 104% | 94.8% | 95.2% | 99% | 96.1% | 99.8% | 97.5% | 94.6% | 97.9% | 101% | 97.9% | 104% | 96.8% | 99.4% | 94.7% | 99.1% | 98.3% | 99.5% | > 10 µM | > 10 µM | > 10 µM | > 10 µM | > 10 µM | 0.4 | 0 | 0 | 0 | 0 |
| O=C(O)C1=C(CSc2nnnn2CS(=O)(=O)O)CS[C@@H]2[C@H](NC(=O)[C@H](O)c3ccccc3)C(=O)N12 [Cefonicid (sodium)] | 95.7% | 97.2% | 97.9% | 96.6% | 95.8% | 99.9% | 98.9% | 102% | 99.1% | 99.5% | 97.8% | 102% | 93.4% | 97.7% | 102% | 95.1% | 99.2% | 94.3% | 101% | 94.4% | 103% | 100% | 92.2% | 103% | 97.7% | > 10 µM | > 10 µM | > 10 µM | > 10 µM | > 10 µM | 0 | 0 | 0 | 0 | 0 |
| CCn1c(=O)[nH]c2cc(Cl)c(Cl)cc21 [DCEBIO] | 101% | 98.6% | 93.8% | 96.9% | 102% | 102% | 100% | 96% | 99.9% | 99.2% | 98.2% | 97.2% | 99.7% | 93% | 98.7% | 98% | 103% | 98.3% | 98.3% | 97% | 101% | 104% | 104% | 86.3% | 107% | > 10 µM | > 10 µM | > 10 µM | > 10 µM | > 10 µM | 0 | 0 | 0 | 0 | 0 |
| CC(C)Oc1ccc(-c2cnc3c(-c4ccnc5ccccc45)cnn3c2)cc1 [DMH1] | 117% | 102% | 105% | 108% | 96.4% | 95.4% | 104% | 98.2% | 104% | 104% | 108% | 93.7% | 102% | 95.9% | 95.6% | 103% | 100% | 98.4% | 94.4% | 89.8% | 104% | 103% | 100% | 96.8% | 90% | > 10 µM | > 10 µM | > 10 µM | > 10 µM | > 10 µM | 0 | 0 | 0 | 0 | 0 |
| CC(=O)c1ccc(NS(C)(=O)=O)c(Oc2ccc(F)cc2F)c1 [FK-3311] | 110% | 93.1% | 103% | 109% | 114% | 98.3% | 101% | 96.2% | 102% | 92.8% | 99% | 90.1% | 96.9% | 94% | 95.8% | 104% | 98.1% | 98.7% | 97.2% | 102% | 98.3% | 107% | 98.6% | 99.5% | 87.3% | > 10 µM | > 10 µM | > 10 µM | > 10 µM | > 10 µM | 0 | 0 | 0 | 0 | 0.1 |
| CCCCC/C=C\C/C=C\CCCCCCCC(=O)NCCCC(=O)O [GABA-linoleamide] | 86% | 97.9% | 87% | 111% | 90.6% | 106% | 108% | 111% | 99.1% | 114% | 96.9% | 110% | 96.2% | 87.5% | 126% | 95.2% | 97.9% | 99.3% | 102% | 95.8% | 74.4% | 97.2% | 95.6% | 98.2% | 120% | > 10 µM | > 10 µM | > 10 µM | > 10 µM | > 10 µM | 0 | 0 | 0 | 0 | 0 |
| CC/C(=C(/c1ccc(/C=C/C(=O)O)cc1)c1ccc2[nH]ncc2c1)c1ccc(F)cc1Cl [GDC-0810] | 105% | 110% | 84.4% | 108% | 105% | 92.9% | 102% | 96.4% | 100% | 90.6% | 102% | 94.6% | 95% | 102% | 92.7% | 101% | 102% | 98.7% | 104% | 100% | 87.5% | 109% | 92.2% | 94.1% | 90.6% | > 10 µM | > 10 µM | > 10 µM | > 10 µM | > 10 µM | 0 | 0 | 0 | 0 | 0 |
| Cc1cc(C)c(CNC(=O)c2cc(-c3ccc(N4CCN(C)CC4)nc3)cc3c2c(C)cn3C(C)C)c(=O)[nH]1 [GSK503] | 88.3% | 85.3% | 92.9% | 109% | 104% | 101% | 104% | 105% | 98.6% | 102% | 98.8% | 104% | 93.7% | 105% | 102% | 104% | 98.6% | 104% | 101% | 102% | 92.6% | 112% | 99.7% | 94.4% | 87.2% | > 10 µM | > 10 µM | > 10 µM | > 10 µM | > 10 µM | 0 | 0 | 0 | 0 | 0.4 |
| CCN(CC)CCNC(=O)c1ccccc1I [I-BZA2] | 98.8% | 102% | 105% | 105% | 115% | 99% | 99.3% | 104% | 91.5% | 110% | 89.9% | 86.5% | 98.7% | 100% | 91.4% | 99.1% | 101% | 95.8% | 102% | 102% | 105% | 94.7% | 102% | 84% | 100% | > 10 µM | > 10 µM | > 10 µM | > 10 µM | > 10 µM | 0 | 0 | 0 | 0 | 0 |
| CCN(CC)CCNC(=O)c1ccc(I)cc1 [I-BZA] | 93.3% | 101% | 96.3% | 105% | 114% | 91.3% | 104% | 95% | 101% | 94.8% | 96.9% | 95.9% | 104% | 106% | 104% | 99.7% | 94.7% | 98.5% | 95.8% | 101% | 93.9% | 101% | 98.9% | 102% | 93.1% | > 10 µM | > 10 µM | > 10 µM | > 10 µM | > 10 µM | 0 | 0 | 0 | 0 | 0 |
| CCCNC(=O)Nc1ccc(Oc2ncnc3cc(OC)c(OC)cc23)cc1Cl [KRN-633] | 100% | 101% | 95.4% | 101% | 97.4% | 101% | 103% | 104% | 105% | 99.2% | 92.8% | 98.5% | 86.6% | 93% | 90.8% | 96.8% | 97.7% | 96% | 97% | 93.4% | 103% | 90.5% | 100% | 92.1% | 94.5% | > 10 µM | > 10 µM | > 10 µM | > 10 µM | > 10 µM | 0 | 0 | 0 | 0 | 0 |
| Cc1cc(N2CCCCC2)nc2ccccc12 [ML204] | 113% | 95.5% | 101% | 107% | 110% | 91.7% | 92.7% | 87.3% | 92.2% | 103% | 87.9% | 97.4% | 84.3% | 96.2% | 87.9% | 99.7% | 98.4% | 96.9% | 102% | 101% | 92% | 93.5% | 88.8% | 104% | 102% | > 10 µM | > 10 µM | > 10 µM | > 10 µM | > 10 µM | 0 | 0 | 0 | 0 | 0 |
| Cc1cc(NC(=O)Nc2ccc(F)c(F)c2)n(-c2ccccc2)n1 [ML297] | 103% | 98.5% | 105% | 97.4% | 98.7% | 104% | 99.5% | 98.2% | 102% | 99.5% | 96.9% | 97% | 95.9% | 108% | 99.2% | 97.1% | 101% | 101% | 103% | 98.2% | 105% | 90.5% | 108% | 91.6% | 98.1% | > 10 µM | > 10 µM | > 10 µM | > 10 µM | > 10 µM | 0 | 0 | 0 | 0 | 0 |
| O=C(Nc1ccc(O)cc1)c1ccccc1O [N-salicoylaminophenol] | 105% | 99.1% | 95.2% | 94.1% | 94.7% | 93.2% | 99.4% | 90.9% | 93.1% | 110% | 94.3% | 96% | 97.4% | 94.7% | 92.7% | 96.6% | 98.1% | 95.6% | 97.4% | 93.3% | 90.2% | 106% | 92.1% | 105% | 113% | > 10 µM | > 10 µM | > 10 µM | > 10 µM | > 10 µM | 0 | 0 | 0 | 0 | 0 |
